# Test results: PubChem BioAssay (NCI)
# Values joined by “and” are separate entries in the source; they are usually repeats but may differ in a detail not shown here. Equal entries are not always repeated.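 A five-concentration, 48-hour dose response in 96-well plates underlies each endpoint, interpolated linearly between surrounding concentrations. Here, GI50 denotes the concentration required for 50% inhibition of growth. TGI is the concentration that stops growth completely.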
# System: HOP-18 NSCLC
# Test: NCI anticancer screen, dose series, 48 h
row,SMILES,TGI [µM]
1,CCOC(=O)c1nc2c(OC)nn(O)cc-2c1[N+](=O)[O-],34.9
2,O=C(/C(=C/c1ccc(Cl)cc1)c1ccccc1)c1ccccc1,62.3

# System: KM20L2 colon
# Test: NCI anticancer screen, dose series, 48 h
row,SMILES,TGI [µM]
1,C#CC1/C(=C\C(=O)OC)CCCC1O (centres undefined),> 100
2,CC12CCC(=O)C[C@H]1CCC(OC=O)C2Br (some centres undefined),> 100
3,COC1C(OC(=S)Nc2ccccc2)c2ccccc2N1C(C)=O (centres undefined),> 100
4,CC1=Cc2cccc(C)c2C(=O)C1=O,35.5
5,Cc1ccc(C)c(NC(=O)c2cccc([N+](=O)[O-])c2O)c1,> 100
6,COCC(OC)C(CC=C(C#N)C#N)OC (centres undefined),> 100
7,On1c(-c2ccccc2)c(-c2ccccc2N2CCCC2)c2ccccc21,> 100
8,CC(C)(C)c1cc(C(P(=O)(O)O)P(=O)(O)O)cc(C(C)(C)C)c1O,> 100
9,CC(C)C1=Cc2ccc3c(c2C(=O)C1=O)CCCC3(C)C,42.7
10,CCOC(=O)c1nc2c(OC)nn(O)cc-2c1[N+](=O)[O-],30.1

# System: MDA-N
# Test: NCI anticancer screen, dose series, 48 h
SMILES,TGI,GI50 [µM]
CC1CC2CCCC(O)=C2C(=O)O1 (centres undefined),> 100 µM,
NNC(=O)CNc1cccc(Br)c1,> 100 µM,
NC(N)=NCCCC(=O)O,> 100 µM,
CCCC(=O)Nc1cn(COC)c(C(=O)N2C[C@@H]3C[C@]34C2=CC(=O)c2[nH]cc(C)c24)n1,19.3 µM and 31.3 µM,12.7
C=CCC1(c2ccc(OC)cc2)C=CC(=O)CC1 (centres undefined),> 100 µM,
Cc1nc(N)sc1N=Nc1ccccc1Br,64.7 µM,
NS(=O)(=O)c1ccc(N=Nc2c(O)c(C(=O)O)cc3ccccc23)cc1,> 100 µM,

# System: SNB-78 CNS
# Test: NCI anticancer screen, dose series, 48 h
row,SMILES,TGI [µM]
1,C#CC1/C(=C\C(=O)OC)CCCC1O (centres undefined),> 100
2,COC1C(OC(=S)Nc2ccccc2)c2ccccc2N1C(C)=O (centres undefined),> 100
3,CC1=Cc2cccc(C)c2C(=O)C1=O,> 100
4,Cc1ccc(C)c(NC(=O)c2cccc([N+](=O)[O-])c2O)c1,56.9
5,COCC(OC)C(CC=C(C#N)C#N)OC (centres undefined),> 100
6,On1c(-c2ccccc2)c(-c2ccccc2N2CCCC2)c2ccccc21,> 100
7,CC(C)(C)c1cc(C(P(=O)(O)O)P(=O)(O)O)cc(C(C)(C)C)c1O,> 100
8,CC(C)C1=Cc2ccc3c(c2C(=O)C1=O)CCCC3(C)C,16.6
9,CCOC(=O)c1nc2c(OC)nn(O)cc-2c1[N+](=O)[O-],44.6
10,O=C(/C(=C/c1ccc(Cl)cc1)c1ccccc1)c1ccccc1,68.7

# System: T-47D breast
# Test: NCI anticancer screen, dose series, 48 h
SMILES,GI50 [µM],TGI
CC1(C)OC2C(CO[Si](C)(C)C(C)(C)C)OC(n3c(I)c(C#C[Si](C)(C)C)c(=O)[nH]c3=O)C2O1 (centres undefined),10.5,26.4 µM
CN(C)CC[C@H](CSc1ccccc1)Nc1ccc(S(=O)(=O)NC(=O)c2ccc(N3CCN(Cc4ccccc4-c4ccc(Cl)cc4)CC3)cc2)cc1[N+](=O)[O-],5.87,> 60.4 µM
COc1ccc(-c2ccc(=O)oc2C#Cc2cc(OC)c(OC)c(OC)c2)cc1O,6.4,> 100 µM
O=C(/C=C/c1ccc[nH]1)c1ccc(-n2ccc(C(F)(F)F)n2)cc1,> 40.9,> 100 µM
O=C(c1ccco1)c1c(C(F)(F)F)nc2ccc(Cl)cc2[n+]1[O-],> 100,> 100 µM
Clc1cc2c(c(CSc3nc4ccccc4n4cccc34)c1)OCOC2,0.596,9.33 µM
CN1CCN(c2ccc(Nc3cc(-c4cccc(-n5ccc6cc(C7CC7)cc(F)c6c5=O)c4CO)cn(C)c3=O)nc2)CC1,3.04,15.9 µM
COc1ccc2nc3ccccc3c(NCc3ccc(F)cc3)c2c1,3.11,13.6 µM
CN(C)C1CCN(C(=O)c2ccc(NC(=O)Nc3ccc(-c4nc(N5CCOCC5)c5cccn5n4)cc3)cc2)CC1,0.0134,0.0664 µM
COc1cc(N=Nc2ccc(O)c3ncccc23)c2ncccc2c1,3.23,> 100 µM
CCn1c(O)c(/C=N/NC(=O)C(C)c2ccc(CC(C)C)cc2)sc1=S (centres undefined),0.56,> 100 µM
C[C@@H]1C[C@@H]([C@@H](CC2CC(=O)NC(=O)C2)OC(=O)CC(=O)c2ccccc2)C(=O)[C@@H](C)C1,0.554,> 29.4 µM
Cc1nc(Nc2cccnc2)sc1C(=O)/C=C/c1ccc(F)cc1,2.25,> 100 µM
N=c1c2c(-c3ccccc3)c(-c3ccccc3)n(Cc3ccccc3)c2ncn1C1CCC(O)CC1 (centres undefined),0.911,18.3 µM
O=c1c(F)cn(Cc2ccc(C34CC5CC(CC(C5)C3)C4)c(O)c2)c(=O)n1Cc1ccc(C23CC4CC(CC(C4)C2)C3)c(O)c1,20.8,51.6 µM
CCOC(=O)Nc1cc2c(c(N)n1)N=C(c1ccccc1)CO2,20.4,73.3 µM
CC1CC2CCCC(O)=C2C(=O)O1 (centres undefined),,> 100 µM
CC(C)(/C=C(\C#N)C(=O)N1CCC[C@@H](n2nc(-c3ccc(Oc4ccccc4)cc3F)c3c(N)ncnc32)C1)N1CCN(C2COC2)CC1,4.77,29.5 µM
O=c1oc2ccc(-c3ccc(F)cc3F)cc2c(=O)n1-c1cccc(C(F)(F)F)c1,0.317,3.29 µM
O=C(Cc1ccc(F)c(Cl)c1)Nc1cc(C2(C(F)(F)F)CC2)nn1CC1CCCCC1,3.78,13.6 µM

SMILES,GI50 [µM],TGI
NC1CCN(Cc2ccccc2)CC1,> 100,> 100 µM
N#Cc1nn(-c2cc(=O)[nH]c3ccc(Cl)cc23)c(N)c1C#N,38.9,> 100 µM
NNC(=O)CNc1cccc(Br)c1,,> 100 µM
NC(N)=NCCCC(=O)O,,> 100 µM
CCN1CCN(c2cc(C)c3cc(NC(=O)c4ccc(OC)c(OC)c4)ccc3n2)CC1,> 39,> 100 µM
COC(=O)c1c2c(c(C)[n+]([O-])c1C)C(=O)C=C(NCc1ccc(F)cc1)C2=O,0.288,1.88 µM
CCCC(=O)Nc1cn(COC)c(C(=O)N2C[C@@H]3C[C@]34C2=CC(=O)c2[nH]cc(C)c24)n1,7.01,38.4 µM and 21.1 µM
CC(=O)Nc1ccc(-c2csc(Nc3cccc(-c4csc(C)n4)c3)n2)cc1,2.65,> 43.2 µM
CNCCOC(=O)/C=C1\CC[C@H]2[C@@H]([C@@H](O)C(=O)[C@@H]3[C@]2(C)CC[C@H](O)[C@]3(C)C(=O)OC)[C@H]1C,0.33,1.67 µM
Cc1nnc(Nc2ccc(NC(=O)Nc3ccc(Cl)cc3)cc2)c2ccccc12,2.06,5.08 µM
CC(=O)ON1CCCC(P(=O)(OCCSC(=O)C(C)(C)C)OCCSC(=O)C(C)(C)C)C1=O (centres undefined),2.08,> 100 µM
C=CCC1(c2ccc(OC)cc2)C=CC(=O)CC1 (centres undefined),,> 100 µM
COC(=O)[C@]12CC[C@@H](C)[C@H](C)[C@@H]1C1=CC[C@@H]3[C@@]4(C)C[C@@H](O)[C@H](O)[C@@](C)(CO)C4=CC[C@@]3(C)[C@]1(C)CC2,12.3,27.8 µM
Cc1nc(N)sc1N=Nc1ccccc1Br,,57.2 µM
NS(=O)(=O)c1ccc(N=Nc2c(O)c(C(=O)O)cc3ccccc23)cc1,,> 100 µM
CC(NCCC(c1ccccc1)c1ccccc1)c1ccccc1 (centres undefined),1.59,3.29 µM
O=C(Nc1ccc(Br)cc1F)c1cc(Cl)ccc1O,0.466,4.83 µM
NC(N)=N/N=C/c1c(Cl)cccc1Cl,14.7,39.6 µM
S=c1[nH]c(=S)c2cc3ccccc3nc2[nH]1,11.1,> 100 µM
O=C(Nc1cccc(C(F)(F)F)c1)c1ccc(NC2=C(Cl)C(=O)N(Cc3ccc(Cl)cc3Cl)C2=O)cc1,2.8,> 100 µM
